Experiments:
[1] = cited from earlier work
[2] = In vitro release/permeation through porcine buccal mucosa in modified Ussing chamber (rosuvastatin, oxycodone, atorvastatin); conditions: not yet tested
[3] = SAXS of mixtures of GMO and excipient/active ingredient immersed in PBS (liquid crystal phase and lattice size); type: physicochemical; design: lamella phase lattice size: unit not given here; conditions: for Threshold (minimum amount of ingredient required to increase the water channel size): % w/w of ingredient in GMO; for Phase structure: PBS buffer pH 6.8, ~22° C.; for Concentration at which V2(Pn3m) lattice size increased / Concentration of transformation/transition in liquid crystalline structure: concentration in GMO; for Concentration of transformation/transition in liquid crystalline structure: change to structure with larger water channels (e.g. Im3m)
Method: The samples were then mixed via a roller mixer at ˜10 RPM at 40° C. for at least 3 days.
One week prior to SAXS experiment, 100 mg samples were loaded into a transparent polystyrene 96 well plate (Nunc™) and immersed in 200 μL of PBS buffer (pH 6.8). The samples were stored away from light at ambient temperature, to allow the samples to reach equilibrium.
The SAXS/WAXS beamline at Australian Synchrotron, Melbourne, Australia was used to determine the liquid crystalline nanostructure in the samples.
A custom-designed plate holder was used to mount the samples plate directly onto the SAXS/WAXS beamline. Scans were automated using a pre-loaded set of position variables based on the well positions within the plate, the exposure time was 5 sec.
Data were obtained at ambient temperature (˜22° C.). […] The 2-D diffraction images were recorded on a Pilatus 1M detector and radially integrated using the in-house software “ScatterBrain”.

[4] = Concentration in GMO 1%, first value of the cell (first phase listed)
[5] = Concentration in GMO 5%, first value of the cell (first phase listed)
[6] = Concentration in GMO 10%, first value of the cell (first phase listed)
[7] = Concentration in GMO 15%, first value of the cell (first phase listed)
[8] = Concentration in GMO 20%, first value of the cell (first phase listed)
[9] = Concentration in GMO 10%, second value of the cell (second phase)
[10] = Concentration in GMO 15%, second value of the cell (second phase)

| Molecule | Phase structure ([3]; Concentration in GMO 1%) | Lattice size [3, 4] [Å] | Phase structure ([3]; Concentration in GMO 5%) | Lattice size [3, 5] [Å] | Phase structure ([3]; Concentration in GMO 10%) | Lattice size [3, 6] [Å] | Phase structure ([3]; Concentration in GMO 15%) | Lattice size [3, 7] [Å] | Lattice size [3, 9] [Å] | Threshold (minimum amount of ingredient required to increase the water channel size) [3] | Concentration at which V2(Pn3m) lattice size increased [3] | Concentration of transformation/transition in liquid crystalline structure [3] | other results |
| --- | --- | --- | --- | --- | --- | --- | --- | --- | --- | --- | --- | --- | --- |
| CNCC(O)c1ccc(O)c(O)c1 (stereo not drawn) [Adrenaline] | – | – | – | – | – | – | – | – | – | – | – | – | logP [1]: −0.5 to −1.4; passage through the porcine oral mucosa in a Ussing chamber [2]: expected to pass through the porcine oral mucosa |
| CC(C)c1c(C(=O)Nc2ccccc2)c(-c2ccccc2)c(-c2ccc(F)cc2)n1CC[C@@H](O)C[C@@H](O)CC(=O)O [Atorvastatin] | V2(Pn3m) | 93.1 | V2(Pn3m) | 99.2 | V2(Pn3m) | 105 | V2(Pn3m) | 101 | – | 8-10% | 10-35% | – | Phase structure ([3]; Concentration in GMO 20%): V2(Pn3m); Lattice size [3, 8]: 103 Å; Phase structure ([3]; Concentration in GMO 25%): V2(Pn3m); Lattice size ([3]; Concentration in GMO 25%, first value of the cell (first phase listed)): 102 Å; Phase structure ([3]; Concentration in GMO 35%): V2(Pn3m); Lattice size ([3]; Concentration in GMO 35%, first value of the cell (first phase listed)): 105 Å |
| CC(C)c1nc(N(C)S(C)(=O)=O)nc(-c2ccc(F)cc2)c1/C=C/[C@@H](O)C[C@@H](O)CC(=O)O [Rosuvastatin] | V2(Pn3m) | 84.2 | V2(Pn3m) | 109 | V2(Pn3m) | 109 | V2(Pn3m) + V2(Im3m) | 122 | 131 | A threshold of 3-5% or about 5%. Transformation in structure | Rosuvastatin - V2(Pn3m) lattice size increased at 5-15%. | – | Lattice size [3, 10]: 148 Å; logP [1]: 1.92 |
| CCCCCCCCCCCCOS(=O)(=O)[O-].[Na+] [SLS, sodium lauryl sulphate] | V2(Pn3m) | 95.4 | V2(Pn3m) | 116 | V2(Pn3m) | 133 | – | – | – | 3-5% or about 5%. SLS was also tested in SBT137 and shown to increase | – | with large water channels. Transition at about 50%. | – |
| OC[C@@H](O)[C@@H](O)[C@H](O)[C@@H](O)CO [Sorbitol] | – | – | – | – | – | – | – | – | – | – | – | – | V2(Pn3m) lattice size ([3]; ingredient 1 to 50% in GMO): 83 to 92 Å; V2(Ia3d) lattice size ([3]; ingredient at 1% in GMO, blended with V2(Pn3m)): about 138 nm; impact on the GMO cubic structure formed ([3]; tablet excipient mixed with GMO): minimal impact |
| Ibuprofen lysine | V2(Pn3m) | 88.9 | V2(Pn3m) | 105 | V2(Pn3m) + V2(Ia3d) | 131 | Lα + V2(Ia3d) | 80.7 | 189 | 3-5% | 5-10% | Transformation in structure by about 10%. | Lattice size [3, 10]: 198 Å |
| Magnesium stearate | – | – | – | – | – | – | – | – | – | – | – | – | V2(Pn3m) lattice size ([3]; ingredient 1-20% in GMO): 93 to 95 Å; lamella phase lattice size ([3]; ingredient at 5-30% in GMO): 50; H2 lattice size ([3]; ingredient at 30% in GMO): 62 nm |

Now from value to molecule, other results behind:

| Phase structure ([3]; Concentration in GMO 1%) | Lattice size [3, 4] [Å] | Phase structure ([3]; Concentration in GMO 5%) | Lattice size [3, 5] [Å] | Phase structure ([3]; Concentration in GMO 10%) | Lattice size [3, 6] [Å] | Phase structure ([3]; Concentration in GMO 15%) | Lattice size [3, 7] [Å] | Lattice size [3, 9] [Å] | Molecule | Threshold (minimum amount of ingredient required to increase the water channel size) [3] | Concentration at which V2(Pn3m) lattice size increased [3] | Concentration of transformation/transition in liquid crystalline structure [3] | other results |
| --- | --- | --- | --- | --- | --- | --- | --- | --- | --- | --- | --- | --- | --- |
| V2(Pn3m) | 95.4 | V2(Pn3m) | 107 | V2(Pn3m) + others | 120 | – | – | – | O=C1NS(=O)(=O)c2ccccc21.[Na] [Saccharin sodium] | 3-5% | 5-10% | – | – |
| V2(Pn3m) | 93.1 | V2(Pn3m) | 103 | V2(Pn3m) + other | 113 | – | – | – | O=S(=O)([O-])NC1CCCCC1.[Na+] [Sodium cyclamate] | 3-5% | 5-10% | – | – |
| V2(Pn3m) | 91.9 | V2(Pn3m) | 97.9 | V2(Pn3m) | 106 | – | – | 139 | CCCCCCCC/C=C\CCCCCCCC(=O)OCCOCC(OCCO)C1OCC(OCCO)C1OCCO (stereo not drawn) [Tween 80] | size from an ODT. A threshold of 8-10% or about 10%. | Tween 80 - V2(Pn3m) lattice size increased at 10-20%. | Transformation in structure by about 20%. | Phase structure ([3]; Concentration in GMO 20%): V2(Pn3m) + V2(Im3m); Lattice size [3, 8]: 138 Å; Lattice size ([3]; Concentration in GMO 20%, second value of the cell (second phase)): 172 Å |

From patent publication US20210369623A1, “COMPOSITION THAT FORMS LIQUID CRYSTALLINE PARTICLES” (Zeenar Enterprises Pty Ltd, priority 2018, published 2021)
